For one assay, the target named is T1, GRK2 (Homo sapiens, UniProt P25098).
T1 sequence (P25098 1-689): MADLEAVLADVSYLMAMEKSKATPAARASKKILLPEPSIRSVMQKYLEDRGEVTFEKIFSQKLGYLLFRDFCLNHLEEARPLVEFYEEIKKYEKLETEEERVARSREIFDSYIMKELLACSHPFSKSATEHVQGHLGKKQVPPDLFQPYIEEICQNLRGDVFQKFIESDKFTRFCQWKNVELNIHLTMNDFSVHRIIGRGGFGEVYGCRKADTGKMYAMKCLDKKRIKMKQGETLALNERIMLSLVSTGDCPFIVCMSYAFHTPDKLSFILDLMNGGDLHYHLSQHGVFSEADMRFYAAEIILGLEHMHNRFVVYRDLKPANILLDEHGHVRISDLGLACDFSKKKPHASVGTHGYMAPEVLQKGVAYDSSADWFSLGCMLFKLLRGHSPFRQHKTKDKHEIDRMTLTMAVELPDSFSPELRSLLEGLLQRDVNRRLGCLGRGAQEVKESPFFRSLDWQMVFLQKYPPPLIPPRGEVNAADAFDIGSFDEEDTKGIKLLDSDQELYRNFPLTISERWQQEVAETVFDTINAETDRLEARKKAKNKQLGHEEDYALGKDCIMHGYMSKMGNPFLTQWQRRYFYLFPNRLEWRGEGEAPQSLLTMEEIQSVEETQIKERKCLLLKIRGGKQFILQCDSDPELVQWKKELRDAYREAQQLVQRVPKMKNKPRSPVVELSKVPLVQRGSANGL
Nature of the assay: hGRK2 LANCE Ultra In Vitro Assay. The assay is classed as biochemical. The following applies: Biological Example 1 GRK2 Lancer IC50 (μM), 10 nM GRK2; 30 or 600 μM ATP (not stated which); multiple measurements listed individually. The method, then:
hGRK2 LANCE Ultra In Vitro Assay
G-protein coupled receptor kinases (GR Kinases) desensitize activated G-protein coupled receptors (GPCRs), by phosphorylation of cytoplasmic loops or carboxyl-terminal tails of GPCRs. GRK2 is one of the 6 different GR kinases and is implicated in heart failure and diabetes.
This assay is sensitive and requires as low as 10 nM enzyme, in a total volume of 10 μL. In addition, the ATP concentration can be varied over a broad range, without interfering with the assay or changing the assay condition. […] Testing inhibitors routinely at both high and low ATP concentrations also enables identification of potential non-ATP competitive inhibitors.
Paroxetine was used as the reference compound in this assay.
Test compounds were dissolved in DMSO at 1 mM and were 3-fold serial diluted. The compound DMSO solutions were then added (100 nL) into a plate well using an acoustic dispenser. To each well was then added 20 nM GRK2 (5 μL) in assay buffer (20 mM HEPES, pH 7.5, 10 mM MgCl2, 0.001% Tween-20®). The plate was sealed and centrifuged at 1000 rpm for 1 min. The plate and wells containing a mixture of GRK2 and test compound were incubated at ambient temperature for 30 min (prior to initializing the enzymatic reaction).
Enzyme reactions were initiated by the addition of 4.9 μL Substrates/Eu-Ab mix to each well. […] Final concentrations of reagents in the assays were as follows: 20 mM HEPES, pH 7.5; 10 mM MgCl2; 0.001% Tween-20® (w/v); 30 or 600 μM ATP; 200 nM ULight-peptide; 4 nM Eu-Ab; 10 nM GRK2; and 1% DMSO.
The plates were sealed and centrifuged at 1000 rpm for 1 min. For reactions at low ATP concentration (30 μM), reaction mixtures were incubated at ambient temperature for 120 min. For reactions at high ATP concentration (600 μM), reaction mixtures were incubated at ambient temperature for 60 min.
The enzyme reactions were quenched by addition of 10 μL of 12 mM EDTA in 1× LANCE detection solution to each well. The plates were then incubated at ambient temperature for 30 min. Time-resolved fluorescence signal of reactions were read on an EnVision or PHERAstar plate reader with the following parameters: Excitation wavelength=337 nm; emission wavelength (donor)=620 nm; emission wavelength (acceptor)=665 nm.
The raw HTRF data were converted to % active as follows:
% active=(sample−NC)/(PC−NC)*100
where NC is the mean of negative control (reactions without GRK2), and PC is the mean of positive control (reactions with GRK2 but without inhibitor). IC50 values were determined from a 4-parameter fit, using the following equation:
Y=Bottom+(Top−Bottom)/(1+10^((Log IC50−X)*Hill slope))
where X=log10 of the compound concentration.
In general terms: TR-FRET usually uses a lanthanide donor and a delayed reading to cut background.
`COc1cccc(CN2C(=O)c3cc(-c4cn[nH]c4)ccc3C23CCCCC3)c1` [Compound 81, 2′-(3-methoxybenzyl)-5′-(1H-pyrazol-4-yl)spiro[cyclohexane-1,1′-isoindolin]-3′-one] returned an IC50 of 0.011 µM.
For `COc1cccc(CN2C(=O)c3cc(-c4cn[nH]c4)ccc3C2(CCO)CCO)c1` [Compound 41, 3,3-bis(2-hydroxyethyl)-2-(3-methoxybenzyl)-6-(1H-pyrazol-4-yl)isoindolin-1-one], inhibition was half-maximal at 0.034 µM (IC50).
`O=C1c2cc(-c3cn[nH]c3)ccc2CN1Cc1cccc(-n2cccn2)c1` [Compound 119]: the IC50 turned out to be 0.113 µM.
As for `COc1ccc(OC)c(C(CO)N2Cc3ccc(-c4cn[nH]c4)cc3C2=O)c1` (centres unmarked) [Compound 52, 2-(1-(2,5-dimethoxyphenyl)-2-hydroxyethyl)-6-(1H-pyrazol-4-yl)isoindolin-1-one], the IC50 came out at 0.742 µM.
`COC(=O)NC1CCC2(C1)c1ccc(-c3cn[nH]c3)cc1C(=O)N2Cc1cccc(OC)c1` (centres unmarked) [Compound 109, methyl (2′-(3-methoxybenzyl)-3′-oxo-5′-(1H-pyrazol-4-yl)spiro[cyclopentane-1,1′-isoindolin]-3-yl)carbamate] displayed an IC50 of 0.006 µM.
For `COc1cccc(C(CN(C)C)N2Cc3ccc(-c4cn[nH]c4)cc3C2=O)c1` (centres unmarked) [Compound 80, 2-(2-(dimethylamino)-1-(3-methoxyphenyl)ethyl)-6-(1H-pyrazol-4-yl)isoindolin-1-one], it took 0.044 µM to reach half-maximal inhibition (IC50).
On the same count and under the same terms, to `CCOc1cccc([C@@H](C)N2Cc3ccc(-c4ncccn4)cc3C2=O)c1` [Compound 171] belongs 0.104 µM.
As to `CNC1CCC2(C1)c1ccc(-c3cn[nH]c3)cc1C(=O)N2Cc1cccc(OC)c1` (centres unmarked) [Compound 118, 2′-(3-methoxybenzyl)-3-(methylamino)-5′-(1H-pyrazol-4-yl)spiro[cyclopentane-1,1′-isoindolin]-3′-one], the IC50 is below 0.005 µM.
For the compound `COc1cccc(CN2Cc3cc(F)c(-c4ccnc(N)n4)cc3C2=O)c1` [Compound 36], the IC50 stood at 0.241 µM.
With `COc1cccc([C@@H](C)N2Cc3c(cc(-c4cn[nH]c4)cc3-c3ccc(OC)nc3)C2=O)c1` [Compound 127, (R)-2-(1-(3-methoxyphenyl)ethyl)-4-(6-methoxypyridin-3-yl)-6-(1H-pyrazol-4-yl)isoindolin-1-one], the IC50 came to 0.047 µM.
In the case of `COCC(c1cccc(OC)c1)N1Cc2ccc(-c3cn[nH]c3)cc2C1=O` (centres unmarked) [Compound 59, 2-(2-methoxy-1-(3-methoxyphenyl)ethyl)-6-(1H-pyrazol-4-yl)isoindolin-1-one], the midpoint of inhibition, the IC50, lay at 0.009 µM.
`COc1cccc(C(CO)N2Cc3c(cc(-c4cn[nH]c4)cc3-c3ccncc3)C2=O)c1` (centres unmarked) [Compound 133, 2-(2-Hydroxy-1-(3-methoxyphenyl)ethyl)-6-(1H-pyrazol-4-yl)-4-(pyridin-4-yl)isoindolin-1-one] showed an IC50 of 0.021 µM.
For `COc1cccc([C@@H](C)N2C(=O)c3cc(-c4cn[nH]c4)ccc3[C@H]2CC(=O)O)c1` (single isomer, unassigned) [Compound 98], the IC50 was 0.106 µM.
Compound `COc1cccc(C(CCC(=O)O)N2Cc3ccc(-c4cn[nH]c4)cc3C2=O)c1` (centres unmarked) [Compound 117, 4-(3-methoxyphenyl)-4-(1-oxo-6-(1H-pyrazol-4-yl)isoindolin-2-yl)butanoic acid] yielded an IC50 of 0.404 µM.
Take `CCOc1cccc([C@@H](C)N2Cc3ccc(-c4ccnc5[nH]ccc45)cc3C2=O)c1` [Compound 167]: the IC50 is above 20 µM.
The same measure, in the same setting: to `COc1cccc([C@@H](C(=O)O)N2Cc3ccc(-c4cn[nH]c4)cc3C2=O)c1` [Compound 169] belongs 0.542 µM; to `COc1cccc([C@@H](C)N2Cc3c(cc(-c4cn[nH]c4)cc3-c3ccncc3)C2=O)c1` [Compound 121, (R)-2-(1-(3-methoxyphenyl)ethyl)-6-(1H-pyrazol-4-yl)-4-(pyridin-4-yl)isoindolin-1-one], 0.01 µM.
For `CCOc1cccc([C@H](C(=O)O)N2Cc3ccc(-c4cn[nH]c4)cc3C2=O)c1` [Compound 74], the IC50 was 4.2 µM.
For `COc1cccc(CN2Cc3ccc(-c4ccnc5[nH]ccc45)cc3C2=O)c1` [Compound 50], half-maximal inhibition (IC50) required 0.334 µM.
`O=C1c2cc(-c3cn[nH]c3)ccc2CN1Cc1cccc(OC2COC2)c1` [Compound 91] registered an IC50 of 0.116 µM.
Still for that read-out and setting: to `COc1cccc([C@@H](C)N2C(=O)c3cc(-c4cn[nH]c4)ccc3C23CCCC3)c1` [Compound 122, (R)-2′-(1-(3-methoxyphenyl)ethyl)-5′-(1H-pyrazol-4-yl)spiro[cyclopentane-1,1′-isoindolin]-3′-one] belongs 1.18 µM; to `COc1cccc(CN2C(=O)c3cc(-c4cn[nH]c4)ccc3C23CCCC3)c1` [Compound 42, 2′-(3-methoxybenzyl)-5′-(1H-pyrazol-4-yl)spiro[cyclopentane-1,1′-isoindolin]-3′-one], 0.006 µM; to `COc1cccc([C@@H](C)N2C(=O)c3cc(-c4cn[nH]c4)ccc3C23CCC(O)C3)c1` (mixture of isomers) [Compound 173], 0.092 µM.
In turn, `COc1cccc(C(COCC(N)=O)N2Cc3ccc(-c4cn[nH]c4)cc3C2=O)c1` (centres unmarked) [Compound 62, 2-(2-(3-Methoxyphenyl)-2-(1-oxo-6-(1H-pyrazol-4-yl)isoindolin-2-yl)ethoxy)acetamide] displayed an IC50 of 0.007 µM.
Same read-out and setting: the result for `O=C1c2cc(-c3cn[nH]c3)ccc2CN1Cc1cccc(Oc2ccccc2)c1` [Compound 103] reads 0.033 µM; that for `COc1cccc([C@@H](C)N2Cc3c(cc(-c4cn[nH]c4)cc3N3CCNCC3)C2=O)c1` [Compound 155, (R)-2-(1-(3-methoxyphenyl)ethyl)-4-(piperazin-1-yl)-6-(1H-pyrazol-4-yl)isoindolin-1-one], 0.007 µM; that for `COc1cccc(C(CO)N2C(=O)c3cc(-c4cn[nH]c4)ccc3C23CC=CC3)c1` (centres unmarked) [Compound 78, 2′-(2-hydroxy-1-(3-methoxyphenyl)ethyl)-5′-(1H-pyrazol-4-yl)spiro[cyclopentane-1,1′-isoindolin]-3-en-3′-one], 0.06 µM.
On to `COc1cccc([C@@H](C2CC2)N2Cc3ccc(-c4cn[nH]c4)cc3C2=O)c1` [Compound 96], for which the half-inhibitory concentration (IC50) is 0.012 µM.
On the same count and under the same terms, to `Cc1ccc(CN2Cc3ccc(-c4cn[nH]c4)cc3C2=O)s1` [Compound 27] belongs 0.324 µM; to `COc1cccc([C@@H](C)N2Cc3c(cc(-c4cn[nH]c4)cc3-c3cccc(O)c3)C2=O)c1` [Compound 139, (R)-4-(3-hydroxyphenyl)-2-(1-(3-methoxyphenyl)ethyl)-6-(1H-pyrazol-4-yl)isoindolin-1-one], 0.033 µM; to `COc1cccc(C(C(=O)c2ccccc2)N2Cc3ccc(-c4cn[nH]c4)cc3C2=O)c1` (centres unmarked) [Compound 92, 2-(1-(3-methoxyphenyl)-2-oxo-2-phenylethyl)-6-(1H-pyrazol-4-yl)isoindolin-1-one], 5.01 µM.

The same assay, now with this note: read-out: Biological Example 1 GRK2 Lancer IC50; 10 nM GRK2; 30 or 600 μM ATP (not stated which); multiple measurements listed individually.
With `COc1cccc([C@@H](C)N2Cc3c(cc(-c4cn[nH]c4)cc3C3CCNC3)C2=O)c1` (stereo partly drawn) [Compound 144, 2-((R)-1-(3-methoxyphenyl)ethyl)-6-(1H-pyrazol-4-yl)-4-(pyrrolidin-3-yl)isoindolin-1-one], the IC50 came to 0.007 µM.

For orientation: IC50 means the point on the concentration scale where inhibition reaches its midpoint.
